In brackets after ≈: the same amount, converted by molar mass.
Assays:
[1] = system: M. tuberculosis H37Rv expressing the green fluorescent protein (H37Rv-GFP); assay: microbe, parasite or virus in culture; type: cell-based; conditions: for MIC50: Mycobacterium tuberculosis, H37RV, 120 h, read-out: QUM (MIC50)
[2] = system: Raw 264.7 cells infected with H37Rv-GFP; assay: microbe, parasite or virus in culture; type: cell-based, M. tuberculosis; conditions: for MIC50: Mycobacterium tuberculosis, H37RV, 120 h, read-out: QIM (MIC50)

| SMILES | MIC50 [1] | MIC50 [2] | QUM (MIC50, uM) [1] | QIM (MIC50, uM) [2] |
| --- | --- | --- | --- | --- |
| Cn1ccc(-c2ccc(NC(=O)c3cc4sc(N5CCNCC5)nc4s3)cc2)n1 [Compound 343] | 1 to 20 µM (≈ 0.425 to 8.49 µg/mL) | < 1 µM |  |  |
| Cc1ccc(-c2ccc(NC(=O)c3cc4sc(N5CCOCC5)nc4s3)cc2)nc1 [Compound 218] | > 20 µM | < 1 µM |  |  |
| Cc1nc2cc(NC(=O)c3cc4sc(N(CCO)C5CCCCC5)nc4s3)ccc2o1 [Compound 227] | 1 to 20 µM (≈ 0.457 to 9.13 µg/mL) | > 20 µM |  |  |
| O=C(Nc1ccc(F)cc1)c1cc2sc(N3CCC(C(=O)c4ccc(Cl)cc4)CC3)nc2s1 [Compound 241] | > 20 µM | < 1 µM |  |  |
| Cc1nc2cc(NC(=O)c3cc4sc(N5CC[C@H](C(=O)N(C)C)C5)nc4s3)ccc2o1 [Compound 215] | < 1 µM | < 1 µM |  |  |
| Cc1ccc(-c2ccc(NC(=O)c3cc4sc(N(C)C)nc4s3)cc2)cn1 [Compound 240] | > 20 µM | < 1 µM |  |  |
| COCCN(c1nc2sc(C(=O)Nc3ccc4oc(C)nc4c3)cc2s1)C(C)C [Compound 242] | 1 to 20 µM (≈ 0.431 to 8.61 µg/mL) | < 1 µM |  |  |
| CN(C)C(=O)[C@@H]1CCN(c2nc3sc(C(=O)Nc4ccc(F)cc4)cc3s2)C1 [Compound 309] | 1 to 20 µM (≈ 0.419 to 8.37 µg/mL) | < 1 µM |  |  |
| COc1ccc(NC(=O)c2cc3sc(N4CCC(O)C4)nc3s2)cc1 (centres unmarked) [Compound 130] | 1 to 20 µM (≈ 0.375 to 7.51 µg/mL) | < 1 µM |  |  |
| CN(C)C(=O)C1CCN(c2nc3sc(C(=O)Nc4ccc5oc(-c6ccc(Cl)cc6)nc5c4)cc3s2)CC1 [Compound 214] | > 20 µM | < 1 µM |  |  |
| O=C(Nc1ccc(N2CCC(Oc3ccc(F)cc3)CC2)cc1)c1cc2sc(N3CCOCC3)nc2s1 [Compound 220] | > 20 µM | < 1 µM |  |  |
| Cc1nc2cc(NC(=O)c3sc4nc(N5CCOCC5)sc4c3N)ccc2o1 [Compound 230] | > 20 µM | > 20 µM |  |  |
| Cc1nc2cc(NC(=O)c3cc4sc(NCCN5CCOCC5)nc4s3)ccc2o1 [Compound 224] | 1 to 20 µM (≈ 0.444 to 8.87 µg/mL) | < 1 µM |  |  |
| Cc1ccc(-c2ccc(NC(=O)c3cc4sc(N5CCC(C(=O)N(C)C)CC5)nc4s3)cc2)nc1 [Compound 217] | 1 to 20 µM (≈ 0.506 to 10.1 µg/mL) | < 1 µM |  |  |
| CN(C)C(=O)C1CCN(c2nc3sc(C(=O)Nc4ccc5oc(Cc6ccc(F)cc6)nc5c4)cc3s2)CC1 [Compound 219] | 1 to 20 µM (≈ 0.564 to 11.3 µg/mL) | < 1 µM |  |  |
| N#Cc1ccc(NC(=O)c2cc3sc(N4CCC(O)CC4)nc3s2)cc1 [Compound 133] | 1 to 20 µM (≈ 0.384 to 7.69 µg/mL) | < 1 µM |  |  |
| O=C(Nc1ccc(F)cc1)c1cc2sc(NC3CCCNC3)nc2s1 (centres unmarked) [Compound 310] | > 20 µM | > 20 µM |  |  |
| COCCN(C)c1nc2sc(C(=O)Nc3ccc(-c4ccc(C)cn4)cc3)cc2s1 [Compound 262] | < 1 µM | < 1 µM |  |  |
| CN(C)C(=O)C1CCN(c2nc3sc(C(=O)Nc4ccc(-c5ccc(F)cc5)nc4)cc3s2)CC1 [Compound 231] | < 1 µM | < 1 µM |  |  |
| CN1CCN(CCNc2nc3sc(C(=O)Nc4ccc(-c5ccc(F)cn5)cc4)cc3s2)CC1 [Compound 325] | 1 to 20 µM (≈ 0.497 to 9.93 µg/mL) | < 1 µM |  |  |
| Cc1nc2cc(NC(=O)c3cc4sc(N5CC[C@@H](C(=O)Nc6ccc7nc(C)oc7c6)C5)nc4s3)ccc2o1 [Compound 222] | 1 to 20 µM (≈ 0.559 to 11.2 µg/mL) | < 1 µM |  |  |
| O=C(Nc1ccc(F)cc1)c1cc2sc(N3CCC(C(O)c4ccc(Cl)cc4)CC3)nc2s1 (centres unmarked) [Compound 247] | 1 to 20 µM (≈ 0.502 to 10 µg/mL) | < 1 µM |  |  |
| CN(C)C(=O)C1CCN(c2nc3sc(C(=O)Nc4ccc(-c5nn(C)cc5Cl)cc4)cc3s2)CC1 [Compound 276] | > 20 µM | < 1 µM |  |  |
| O=C(Nc1ccc(N2CCC(O)(Cc3ccccc3)CC2)cc1)c1cc2sc(NCCN3CCOCC3)nc2s1 [Compound 294] | > 20 µM | < 1 µM |  |  |
| O=C(Nc1ccc(F)cc1)c1cc2sc(NC3CCN(Cc4ccc(F)cc4)CC3)nc2s1 [Compound 314] | < 1 µM | < 1 µM |  |  |
| COc1ccc(NC(=O)c2cc3sc(N4CCc5cc(OC)ccc5C4)nc3s2)cc1 [Compound 168] | 1 to 20 µM (≈ 0.452 to 9.03 µg/mL) | < 1 µM |  |  |
| CN(C)C(=O)C1CCN(c2nc3sc(C(=O)Nc4ccc(-c5ccc(F)nc5)cc4)cc3s2)CC1 [Compound 216] | < 1 µM | < 1 µM |  |  |
| Cc1nc2cc(NC(=O)c3cc4sc(N5CCN6CCCC6C5)nc4s3)ccc2o1 (centres unmarked) [Compound 323] | < 1 µM | < 1 µM |  |  |

| SMILES | MIC50 [1] | MIC50 [2] | QUM (MIC50, uM) [1] | QIM (MIC50, uM) [2] |
| --- | --- | --- | --- | --- |
| O=C(Nc1ccc(-c2ccc(F)cn2)cc1)c1cc2sc(NCCCN3CCOCC3)nc2s1 [Compound 328] | < 1 µM | < 1 µM |  |  |
| COCCN(C)c1nc2sc(C(=O)Nc3ccc(-c4ccc(OC)nc4)cc3)cc2s1 [Compound 265] | < 1 µM | < 1 µM |  |  |
| CN(C)c1nc2sc(C(=O)Nc3ccc4oc(-c5ccc(F)cc5)nc4c3)cc2s1 [Compound 210] | > 20 µM | > 20 µM |  |  |
| O=C(Nc1ccc(-c2ccc(F)nc2)cc1)c1cc2sc(NCC(O)C(F)(F)F)nc2s1 (centres unmarked) [Compound 341] | 1 to 20 µM (≈ 0.482 to 9.65 µg/mL) | < 1 µM |  |  |
| O=C(Nc1ccc(-c2ccc(F)nc2)cc1)c1cc2sc(N3CCN4CCCC4C3)nc2s1 (centres unmarked) [Compound 338] | < 1 µM | < 1 µM |  |  |
| Cc1nc2cc(NC(=O)c3cc4sc(NCCCN5CCOCC5)nc4s3)ccc2o1 [Compound 296] | 1 to 20 µM (≈ 0.458 to 9.15 µg/mL) | < 1 µM |  |  |
| Cc1nc2cc(NC(=O)c3cc4sc(NCCOc5ccc(Cl)cc5)nc4s3)ccc2o1 [Compound 290] | > 20 µM | < 1 µM |  |  |
| CN(C)C(=O)CC1CCN(c2nc3sc(C(=O)Nc4ccc(-c5ccc(F)nc5)cc4)cc3s2)CC1 [Compound 351] | < 1 µM | < 1 µM |  |  |
| Cc1nc2cc(NC(=O)c3cc4sc(N5CCC(C(O)c6ccc(Cl)cc6)CC5)nc4s3)ccc2o1 (centres unmarked) [Compound 206] | > 20 µM | < 1 µM |  |  |
| Cc1ccc(-c2ccc(NC(=O)c3cc4sc(N5CCC(C(=O)N(C)C)CC5)nc4s3)cc2)cn1.Cl [Compound 208] |  |  | +++ (+++ indicates <1 uM) | +++ (+++ indicates <1 uM) |
| O=C(Nc1ccc(F)cc1)c1cc2sc(NCCN3CCOCC3)nc2s1 [Compound 302] | 1 to 20 µM (≈ 0.407 to 8.13 µg/mL) | < 1 µM |  |  |
| Cc1ccc(-c2ccc(NC(=O)c3cc4sc(NCCN5CCOCC5)nc4s3)cc2)nc1 [Compound 260] | 1 to 20 µM (≈ 0.48 to 9.59 µg/mL) | < 1 µM |  |  |
| O=C(Nc1ccc(F)cc1)c1cc2sc(NC3CCCN(c4ccc(F)cc4)C3)nc2s1 (centres unmarked) [Compound 318] | > 20 µM | < 1 µM |  |  |
| CN(CC(O)C(F)(F)F)c1nc2sc(C(=O)Nc3ccc(F)cc3)cc2s1 (centres unmarked) [Compound 316] | 1 to 20 µM (≈ 0.419 to 8.39 µg/mL) | < 1 µM |  |  |
| O=C(Nc1ccc(F)cn1)c1cc2sc(N3CCOCC3)nc2s1 [Compound 105] | 1 to 20 µM (≈ 0.364 to 7.29 µg/mL) | < 1 µM |  |  |
| Cc1nc2cc(NC(=O)c3cc4sc(N5CCC(Nc6ccc(F)cc6)CC5)nc4s3)ccc2o1 [Compound 320] | 1 to 20 µM (≈ 0.508 to 10.2 µg/mL) | < 1 µM |  |  |
| CN(C)C(=O)C1CCN(c2nc3sc(C(=O)Nc4ccc(-c5ccn(C)n5)cc4)cc3s2)CC1 [Compound 203] | < 1 µM | < 1 µM |  |  |
| O=C(Nc1ccc(F)cc1)c1cc2sc(N3CCC(COc4ccc(Cl)cc4)CC3)nc2s1 [Compound 245] | 1 to 20 µM (≈ 0.502 to 10 µg/mL) | < 1 µM |  |  |
| Cc1nc2cc(NC(=O)c3cc4sc(N5CCN(CCO)CC5)nc4s3)ccc2o1 [Compound 336] | 1 to 20 µM (≈ 0.444 to 8.87 µg/mL) | < 1 µM |  |  |
| Cc1nc2cc(NC(=O)c3cc4sc(NCCN5CCCCC5)nc4s3)ccc2o1 [Compound 297] | > 20 µM | 1 to 20 µM (≈ 0.442 to 8.83 µg/mL) |  |  |
| Cc1nc2cc(NC(=O)c3cc4sc(NCCO)nc4s3)ccc2o1 [Compound 267] | 1 to 20 µM (≈ 0.374 to 7.49 µg/mL) | 1 to 20 µM (≈ 0.374 to 7.49 µg/mL) |  |  |
| COC(=O)c1ccc(NC(=O)c2cc3nc(N4CCCCC4)sc3s2)cc1 [Compound 13] | 1 to 20 µM (≈ 0.402 to 8.03 µg/mL) | < 1 µM |  |  |
| O=C(Nc1ccc(F)cc1)c1cc2sc(NCC(O)C(F)(F)F)nc2s1 (centres unmarked) [Compound 330] | 1 to 20 µM (≈ 0.405 to 8.11 µg/mL) | < 1 µM |  |  |
| O=C(Nc1ccc(-c2ccc(F)nc2)cc1)c1cc2sc(NCCN3CCCCC3)nc2s1 [Compound 329] | 1 to 20 µM (≈ 0.482 to 9.63 µg/mL) | < 1 µM |  |  |
| CN(CCO)c1nc2sc(C(=O)Nc3ccc4oc(CCc5ccc(F)cc5)nc4c3)cc2s1 [Compound 252] | 1 to 20 µM (≈ 0.497 to 9.93 µg/mL) | < 1 µM |  |  |
| CN(CC(O)C(F)(F)F)c1nc2sc(C(=O)Nc3ccc(-c4ccc(F)cn4)cc3)cc2s1 (centres unmarked) [Compound 317] | 1 to 20 µM (≈ 0.497 to 9.93 µg/mL) | < 1 µM |  |  |
| C#CCOc1ccc(-c2ccc(NC(=O)c3cc4sc(N(C)CCOC)nc4s3)cc2)cc1 [Compound 358] | < 1 µM | < 1 µM |  |  |
